Test results as given in patent publication US8877261B2, “Anti-redness active agent and cosmetic compositions comprising same” (Laboratoires Expanscience, priority 2011, dated 2014).
Marks after values point to notes of the source that are not given here.

Legend:
interleukin-8 (IL8) = assay: Release of IL8 by keratinocytes induced by PMA (ELISA); assay type: cell-based, human; details: dexamethasone 10^−7 M, ARG 0.2% + LUP 0.02%
Protocol: Human keratinocytes (NCTC 2544 cell line) were preincubated for 24 hours with the arabinogalactan (ARG)/lupin peptides (LUP) active agents at concentrations of 0.2%/0.02% or with the reference molecule, dexamethasone.
Inflammation was then induced by treatment with PMA for 24 hours, always in the presence of the active agents or the reference molecule.
At the end of incubation, the quantities of interleukin-8 (IL8) present in the culture supernatants were measured by ELISA.
The significance of the results was verified by a single-factor analysis of variance followed by a Tukey's test.
The percentage of inhibition is calculated according to the following formula: [(stimulated PMA)−(active treatment)/(stimulated PMA)]*100 Results (Table 10)

MMP9 = assay: Gene expression of MMP9 in keratinocytes induced by PMA (real-time PCR); assay type: cell-based, human; details: NHEK, total 40 hours
Protocol: The effect of the active agents was sought in a basal condition (to study MMP2) or in a preventive manner on a cell layer having been subjected to inflammatory stress induced by PMA (for MMP9).
Normal human epidermal keratinocytes (NHEK) were preincubated for 24 hours in the presence of the arabinogalactan (ARG)/lupin peptides (LUP) active agents at concentrations of 0.2%/0.02%. PMA was then added for a total treatment period of 40 hours.
(§1) At the end of the treatment, the culture supernatants were removed and total RNA was extracted, analyzed and assayed. The neo-synthesized cDNA relating to the genes of interest (MMP2, MMP9) or to the reference genes were amplified selectively by iQ5 real-time PCR (Biorad) using SybrGreen technology.
(§2) By calculating ΔCt (Ctgene of interest−Ctreference gene) and ΔΔCt (ΔCtcontrol−ΔCttreated) the relative quantity of the gene of interest was measured: RQ=(1+E)^ΔΔCt; when E (effectiveness) is equal to 1, then RQ=2^ΔΔCt.
The significance of the results was verified for the ΔCt values by a single-factor analysis of variance followed by a Dunnett's test (for MMP2) or a Tukey's test (for MMP9).
The percentage of inhibition is thus calculated for MMP9: [(RQ(PMA stimulated)−RQ(active treatment))/RQ(PMA stimulated)]*100 Results

cathelicidin (LL37) = assay: Gene expression of cathelicidin (LL37) induced by calcitriol in keratinocytes (real-time PCR); assay type: cell-based, human; details: for Mean ΔCt (CtLL37 − CtGAPDH) / LL37 expression (relative quantity) / ΔΔCt (LL37) / Percentage of inhibition (LL37 expression): NHEK, 24 hours, ARG 0.2%, LUP 0.02%; for Mean ΔCt (CtLL37 − CtGAPDH) / LL37 expression (relative quantity) / ΔΔCt (LL37): with calcitriol; for Mean ΔCt (CtLL37 − CtGAPDH): alone or in combination; for LL37 expression (relative quantity): control cells = 1.00; for ΔΔCt (LL37): ΔCtcontrol−ΔCttreated; for Percentage of inhibition (LL37 expression): versus calcitriol stimulated control
Protocol: (§3) Normal human epidermal keratinocytes (NHEK) were cultured in differentiation culture medium supplemented with Ca^++. […] At the end of the treatment, the culture supernatants were removed and total RNA was extracted, analyzed and assayed. The neo-synthesized cDNA relating to the genes of interest (LL37 and KLK5) or to the reference genes were amplified selectively by iQ5 real-time PCR (Biorad) using SybrGreen technology. […] By calculating ΔCt (Ctgene of interest−Ctreference gene) and ΔΔCt (ΔCtcontrol−ΔCttreated) the relative quantity of the gene of interest was measured: […] The significance of the results was verified for the ΔCt values by a single-factor analysis of variance followed by a Tukey's test. The percentage of inhibition of the expression of LL37 and KLK5 is thus calculated: [(RQ(stim calcitriol)−RQ(active treatment))/RQ(stim calcitriol)]*100 Results

kallikrein-5 (KLK5) = assay: Gene expression of kallikrein-5 (KLK5) induced by calcitriol in keratinocytes (real-time PCR); assay type: cell-based, human
Protocol: as §3

[1] = tested on: Normal human dermal microvascular endothelial cells; assay: Proliferation of endothelial cells in the presence of VEGF (PNPP viability); assay type: cell-based; details: for T24 h - %/control (without VEGF) T0 / Percentage of inhibition 24 h (proliferation induced by VEGF): 24 hours; for T24 h - %/control (without VEGF) T0 / T48 h - %/control (without VEGF) T0: in the presence of VEGF, PNPP signal, mean±standard deviation; for T24 h - %/control (without VEGF) T0 / T48 h - %/control (without VEGF) T0 / Percentage of inhibition 24 h (proliferation induced by VEGF) / Percentage of inhibition 48 h (proliferation induced by VEGF): ARG 0.2%, LUP 0.02%; for T48 h - %/control (without VEGF) T0 / Percentage of inhibition 48 h (proliferation induced by VEGF): 48 hours; for stimulation of the growth of endothelial cells in relation to control cells: VEGF, p<0.01; for Percentage of inhibition 24 h (proliferation induced by VEGF) / Percentage of inhibition 48 h (proliferation induced by VEGF): alone or in combination
Protocol: Normal human dermal microvascular endothelial cells were incubated for 24 or 48 hours in the absence (control) or in the presence of the arabinogalactan (ARG)/lupin peptides (LUP) active agents at concentrations of 0.2%/0.02% alone or in combination and in the presence of vascular endothelial growth factor (VEGF), the reference activator. At the end of incubation, the viability of the cells was evaluated by a spectrophotometric method: P-nitrophenyl phosphate (PNPP) is transformed into p-nitrophenol by phosphatases of viable cells and the absorbance at 405 nm of p-nitrophenol is directly proportional to the number of viable cells.
The results are expressed as the percentage of the “PNPP” signal of the control without VEGF at TO (mean±standard deviation).
The statistical significance of the differences between the “VEGF stimulated cells” and “VEGF+active agents” conditions was evaluated by a single-factor analysis of variance followed by a Holm-Sidak test.
The percentage of inhibition of proliferation is calculated according to the following equation: [(active treatment)−(VEGF stimulated)/(control without VEGF)−(VEGF stim)]*100 Results

VEGF = assay: Gene expression of VEGF by keratinocytes (real-time PCR); assay type: cell-based, human; details: NHEK; for Percentage of inhibition (VEGF expression): versus control cells
Protocol: Normal human epidermal keratinocytes (NHEK) were incubated in the presence of the complex of arabinogalactan (ARG)/lupin peptides (LUP) active agents at concentrations of 0.2%/0.02% alone or in combination.
as §1, with “(VEGF, FGF2, HIF1α, THBS1)” for “(MMP2, MMP9)”
as §2
The significance of the results was verified for the ΔCt values by a single-factor analysis of variance followed by a Dunnett's test.
The percentage of inhibition is calculated for VEGF, FGF2 and HIF1α: [(RQ(control)−RQ(active treatment))/RQ (control)]*100

[2] = NCTC 2544 keratinocytes, 24 hours preincubation then PMA 24 hours, culture supernatants
[3] = calcitriol versus control cells, p<0.001

C[C@@H]1C[C@H]2[C@@H]3CCC4=CC(=O)C=C[C@]4(C)[C@@]3(F)[C@@H](O)C[C@]2(C)[C@@]1(O)C(=O)CO [Dexamethasone, dexamethasone] was tested, and the inhibition at 0.1 µM (interleukin-8 (IL8); Homo sapiens, NCTC-2544, versus PMA stimulated control, NCTC 2544, read-out: percentage of inhibition of IL8 release induced by PMA) was 81%, the “IL8” value (interleukin-8 (IL8); [2]) was 5.967 ± 0.203 ng/mL and the “percentage of inhibition of IL8 release induced by PMA” value (interleukin-8 (IL8); versus PMA stimulated control, NCTC 2544) was 80.5%.

With CCCCCCCCCCCCCC(=O)O[C@@H]1[C@@H](C)[C@@]2(O)[C@@H](C=C(CO)C[C@]3(O)C(=O)C(C)=C[C@@H]23)[C@@H]2C(C)(C)[C@]12OC(C)=O [PMA] the “ΔΔCt (MMP9)” value (MMP9; PMA stimulated) was 6.55, the “MMP9 expression (relative quantity)” value (MMP9; PMA stimulated, control cells = 1) was 93.70 $$$ and the “Mean ΔCt (CtMMP9 − CtGAPDH)” value (MMP9; preincubated 24 hours, then PMA, ARG 0.2% + LUP 0.02%) was 2.32. The “IL8 (ng/ml)” value (interleukin-8 (IL8); [2]) was 30.60 ± 1.888 $$$ ng/ml.

In the case of C=C1/C(=C\C=C2/CCC[C@]3(C)[C@@H]([C@H](C)CCCC(C)(C)O)CC[C@@H]23)C[C@@H](O)C[C@@H]1O [calcitriol], the “Mean ΔCt (CtLL37 − CtGAPDH)” value (cathelicidin (LL37)) is reported as 11.02, the “LL37 expression (relative quantity)” value (cathelicidin (LL37)) is reported as 9.12 $$$ and the “ΔΔCt (LL37)” value (cathelicidin (LL37)) is reported as 3.19. The “stimulation of the gene expression of LL37 by keratinocytes” value (cathelicidin (LL37); [3]) was 812%, the “Mean ΔCt (CtKLK5 − CtGAPDH)” value (kallikrein-5 (KLK5); NHEK, 24 hours, with calcitriol, ARG 0.2% + LUP 0.02%) was 2.46 and the “KLK5 expression (relative quantity)” value (kallikrein-5 (KLK5); NHEK, 24 hours, with calcitriol, control cells = 1.00) was 2.49 $$$. The “ΔΔCt (KLK5)” value (kallikrein-5 (KLK5); NHEK, 24 hours, with calcitriol, ΔCtcontrol−ΔCttreated) was 1.32 and the “stimulation of the gene expression of kallikrein-5 by keratinocytes” value (kallikrein-5 (KLK5); [3]) was 149%.

With VEGF the “T24 h - %/control (without VEGF) T0” value [1] was 213.2 ± 10.8%, the “T48 h - %/control (without VEGF) T0” value [1] was 262.6 ± 5^ % and the “stimulation of the growth of endothelial cells in relation to control cells” value ([1]; after 24 hours of incubation) was 78.9%. For the same compound, the “stimulation of the growth of endothelial cells in relation to control cells” value ([1]; after 48 hours of incubation) was 159%.

In the case of arabinogalactan [ARG], the “Mean ΔCt (CtLL37 − CtGAPDH)” value (cathelicidin (LL37)) is reported as 11.31, the “LL37 expression (relative quantity)” value (cathelicidin (LL37)) is reported as 7.46 * and the “ΔΔCt (LL37)” value (cathelicidin (LL37)) is reported as 2.9. For the same compound, the “Percentage of inhibition (LL37 expression)” value (cathelicidin (LL37)) was 18.2%, the “Percentage of inhibition (LL37 expression)” value (cathelicidin (LL37); listed as Arabinogalactan) was 18% and the “T24 h - %/control (without VEGF) T0” value [1] was 204.7 ± 7.1%. The “Percentage of inhibition 24 h (proliferation induced by VEGF)” value [1] was 17.03%, the “Percentage of inhibition 24 h (proliferation induced by VEGF)” value ([1]; listed as arabinogalactan) was 17% and the “T48 h - %/control (without VEGF) T0” value [1] was 252.9 ± 6^ %. For the same compound, the “Percentage of inhibition 48 h (proliferation induced by VEGF)” value [1] was 9.71%, the “Percentage of inhibition 48 h (proliferation induced by VEGF)” value ([1]; listed as arabinogalactan) was ~10% and the “Mean ΔCt (CtVEGF − CtGAPDH)” value (VEGF; ARG 0.2%, LUP 0.02%, alone or in combination) was 9.03. For the same compound, the “VEGF expression (relative quantity)” value (VEGF; control cells = 1) was 0.707 **, the “ΔΔCt (VEGF)” value (VEGF; ΔCtcontrol−ΔCttreated) was −0.5 and the “Percentage of inhibition (VEGF expression)” value (VEGF; ARG 0.2%, LUP 0.02%) was 29.3%. For the same compound, the “Percentage of inhibition (VEGF expression)” value (VEGF; ARG 0.2%, LUP 0.02%, listed as Arabinogalactan) was 29%.
